A word on the Cmax: it is the highest concentration seen after dosing. By half-life is commonly meant how long it takes for the measured level to halve. For orientation: clearance means the volume of plasma or blood freed of the substance per unit of time. A low value points to a low capacity for elimination. A word on the Vd: it is the apparent volume that relates the amount in the body to the concentration in plasma or blood. Low readings indicate confinement near the circulation, high ones extensive tissue distribution. One may read the CL/F as the apparent clearance, not corrected for the fraction that reaches the circulation.

Series [1] concerns Mus musculus. The experiment in a line: Toxicity in mouse at 50 to 200 mg/kg, po administered as single dose up to 48 hrs. The series is classed as organism-based. The following applies: in vivo.
In series [2] the test system is Mus musculus. In words: Toxicity in mouse at 200 mg/kg, po bid for 14 days. The series is classed as organism-based. The note with it: in vivo, 336 h.
Series [3] is described as follows: Plasma concentration in mouse at 200 mg/kg, po administered as singe dose measured after 1 hr. The series is classed as ADME, organism-based.
For series [4], the system named is Mus musculus. In words: Toxicity in mouse assessed as weight loss at 200 mg/kg, po qd for 3 days. The series is classed as organism-based. The following applies: in vivo, 72 h.
For series [5], the system named is Mus musculus. The experiment in a line: Cmax in mouse at 50 to 200 mg/kg, po administered as single dose. The series is classed as ADME, organism-based. The following applies: in vivo.
In series [6] the test system is Mus musculus. In words: Oral bioavailability in mouse at 50 mg/kg administered as single dose. The series is classed as ADME, organism-based. The note with it: in vivo.
A short description of series [7]: Half life in mouse at 100 mg/kg, po administered as single dose. The series is classed as ADME, organism-based. The note with it: in vivo.
Series [8] in a line: Half life in mouse liver microsomes at 0.8 uM by LC-MS/MS analysis. Type of series: ADME, microsome. On the technique in general: Microsomes from liver hold many membrane-bound enzymes, among them those of drug oxidation.
A short description of series [9]: Clearance in mouse at 1 mg/kg, iv administered as single dose. Type of series: ADME, organism-based. The note with it: in vivo.
For series [10], the system named is Mus musculus. The experiment in a line: Toxicity in mouse at 0.5 to 1.5 mg/kg, iv administered as single dose up to 48 hrs. Type of series: organism-based. The note with it: in vivo.
Series [11] relates to Mus musculus. In words: Toxicity in mouse assessed as weight loss at 200 mg/kg, po qd for 5 to 14 days. Type of series: organism-based. The note with it: in vivo.
The subject of series [12] is Mus musculus. The experiment in a line: Volume of distribution in mouse at 0.5 to 1.5 mg/kg, iv administered as single dose. The following applies: in vivo. Type of series: ADME, organism-based.
A short description of series [13]: Intrinsic clearance in mouse liver microsomes at 0.8 uM by LC-MS/MS analysis. The series is classed as ADME, microsome. The following applies: read-out: CLH.
Series [14] can be described thus: Plasma concentration in mouse at 200 mg/kg, po qd for 14 days measured after 1 hr. The series is classed as ADME, organism-based.
A short description of series [15]: Plasma concentration in mouse at 200 mg/kg, po bid for 14 days measured after 1 hr. The series is classed as ADME, organism-based.
Series [16] can be described thus: Clearance in mouse at 100 mg/kg, po administered as single dose. Type of series: ADME, organism-based. The note with it: in vivo.
A short description of series [17]: Half life in mouse at 1 mg/kg, iv administered as single dose. The series is classed as ADME, organism-based. The following applies: in vivo.
The subject of series [18] is Mus musculus. In words: Toxicity in mouse at 200 mg/kg, po qd for 14 days. The series is classed as organism-based. The note with it: in vivo, 336 h.
Series [19] concerns Mus musculus. In words: AUClast in mouse at 50 to 200 mg/kg, po administered as single dose. The note with it: in vivo. The series is classed as ADME, organism-based.

As to `CCCCN1CCC(N(Cc2ccccc2)C(=O)Nc2ccc(Cl)c(Cl)c2)CC1`, the Activity entry in the series on Mus musculus [1] is “Non-Toxic”; in the series on Mus musculus [2], “Non-Toxic”; in the series on Mus musculus [4] it was 3 to 5%; in the series on Mus musculus [10], “Non-Toxic”; in the series on Mus musculus [11], “Non-Toxic”; in the series with Mus musculus [18] it was “Non-Toxic”. Besides, the concentration at 1 h in [3] worked out at 3000 nM; in series [14] it was 2400 nM; in series [15] it was 3300 nM. In the series with Mus musculus [5], this compound displayed a Cmax of 1500 to 3000 nM. For the same compound, the F in the series with Mus musculus [6] came out at 88%. Moreover, the half-life in series [7] was 4.2 h; in [17] it was 3.6 h. In [8], this compound displayed a half-life at 0.8 µM of 2.1 to 2.11 h. Besides, the clearance in series [9] is 283 mL/min/kg. The compound further yielded a Vd in the series on Mus musculus [12] of 87.3 to 176 L/kg. For the same compound, in series [13], the CLint scaled at 0.8 µM is 25 to 25.6 mL/min/kg. Further, the CL/F in series [16] is 367 mL/min/kg. In addition, in the series with Mus musculus [19], the AUClast was 3.4 to 17.1 µM·h.

Values taken from ChEMBL document CHEMBL4020847, “Discovery of an Orally Bioavailable Inhibitor of Defective in Cullin Neddylation 1 (DCN1)-Mediated Cullin Neddylation” (J Med Chem, 2018).
